In article PMC12705620 (Frontiers in Pharmacology, 2025):
Bridge positions count the residues as written; N and C are the ends. Square brackets hold non-standard residues; d marks the D form. Peptide text beside a SMILES is read from it. I, II: the chains in the order shown. Dap = NC[C@H](N)C(=O)O; Ahx = NCCCCCC(=O)O

Columns and labels:
S. aureus JAR060131 = test: Bactericidal (time-kill) kinetics; type: cell-based, Staphylococcus aureus; conditions: for Time to complete bacterial eradication: all tested concentrations (0.94, 1.88, 3.75 µM); for Log reduction in CFU: within 5 min at 3.75 µM
Method: (§1) Time-kill kinetics were evaluated against S. aureus JAR060131 and A. baumannii RUH875. Mid-logarithmic phase bacterial cultures were diluted to a final concentration of 1 × 10^6 CFU/mL in PBS. Bacteria were incubated with 0.5-, 2-, and 4-fold the LC99.9. Assays were conducted in polypropylene tubes (Micronics) with a total volume of 500 µL. Control samples consisted of bacteria incubated in PBS alone. At 1, 5, 30, and 120 min, 50 µL samples were collected and immediately added to 50 µL of 0.05% (v/v) sodium polyanethol sulfonate (SPS; Sigma-Aldrich) in PBS to neutralize residual peptide activity ([Dankert et al., 1995]). Viable bacterial counts were determined by plating 10 µL of serial 10-fold dilutions onto BA plates. Colonies were counted after 24 h of incubation at 37 °C. All conditions were performed in triplicate.

A. baumannii RUH875 = test: Bactericidal (time-kill) kinetics; type: cell-based, Acinetobacter baumannii; conditions: for Time to complete killing: 3.75 µM peptide
Method: as §1

[1] = system: TNF-α production by dTHP-1 macrophages stimulated with UV-inactivated S. aureus JAR060131; test: Endotoxin neutralization, UV-inactivated S. aureus-stimulated macrophages; type: cell-based; conditions: MOI 2 with 1 or 2 µM peptide, 4 h, ELISA, versus NT
Method: The endotoxin-neutralizing capacity of the peptides was assessed by measuring tumor necrosis factor-alpha (TNF-α) production by dTHP-1 macrophages. dTHP-1 macrophages were stimulated with either lipopolysaccharide (LPS; E. coli O111:B4; 5 ng/mL, Sigma-Aldrich) or UV-inactivated S. aureus JAR060131 (MOI 2; as described in Section 5.2), in the presence or absence of one or 2 µM peptides. Cells were cultured in serum-free RPMI and incubated for 4 h at 37 °C with 5% CO2. Positive controls consisted of cells stimulated with LPS or UV-S. aureus without peptide treatment (no treatment, NT), and unstimulated cells served as negative controls. After stimulation, cell supernatants were collected, and cytokine levels of TNF-α were quantified using human ELISA kits (R&D Systems, USA) according to the manufacturer’s instructions. Each condition was tested in triplicate.

[2] = system: S. aureus RN4220 (mCherry) in dTHP-1 macrophages; test: Intracellular bacterial killing in macrophages; type: cell-based, Staphylococcus aureus; conditions: 24 h pre-treatment at 1 µM and 2 µM, MOI 2, CFU after lysis, versus no treatment
Method: Human monocytes (THP-1; TIB-202; ATCC) were cultured in RPMI 1,640 medium (Gibco) supplemented with 10% FBS. For differentiation into macrophage-like cells (dTHP-1), THP-1 monocytes were seeded in 96-well plates at 3 × 10^4 cells/well (100 µL) in RPMI supplemented with 50 ng/mL phorbol 12-myristate 13-acetate (PMA; Sigma-Aldrich), and incubated for 48 h. The protocol for intracellular killing was adapted from Tang et al. ([Tang et al., 2015]) with modifications. After differentiation, dTHP-1 cells were pre-treated with one or 2 µM peptide solutions in fresh RPMI for 24 h. Subsequently peptides were removed by washing three times with PBS. An mCherry-expressing S. aureus strain, prepared as described in Section 5.2, was used. This strain is efficiently internalized by macrophages ([Cuypers et al., 2024]). Bacteria were added to dTHP-1 cells at a multiplicity of infection (MOI) of 2:1 and incubated for 45 min at 37 °C with 5% CO2 for phagocytosis. Extracellular bacteria were then removed by washing the wells three times with 60 µL PBS, followed by a final wash with 200 µL PBS.dTHP-1 cells were either lysed immediately to quantify the number of intracellular bacteria, after phagocytosis (T = 0 h) or were incubated for 24 h (T = 24 h) in RPMI supplemented with 10 μg/mL gentamicin (Sigma-Aldrich) to inhibit extracellular bacterial growth (in both peptide-treated and control dTHP-1 cells). Internalized bacteria were quantified after lysing the cells with 0.025% Triton X-100 in PBS for 15 min. Lysates were serially diluted (both at 0 h and 24 h) and plated onto BA for CFU enumeration to assess intracellular bacterial survival.

[3] = system: S. aureus LUH14616 (MRSA); test: Ex vivo human skin wound infection model; design: species or system Staphylococcus aureus
Description: Human skin from 3 donors was obtained via the Residual Tissue Biobank of the Red Cross Hospital (Beverwijk, Netherlands). The use of these coded, post-operative residual tissue samples was approved by patients through the informed opt-out-plus protocol of the Red Cross Hospital Skin ([Code-of-Conduct-for-Health-Research, 2022]) and processed for an ex vivo wound infection model as described ([Dijksteel et al., 2020]). The Wounded skin grafts were sectioned into approximately 1 cm^2 samples using a sterile scalpel and were decontaminated by immersion in 70% ethanol for 30 min, followed by three PBS washes. Samples were placed dermis-down and wound-side-up on stainless steel grids with central indentations, positioned in 12-well plates, and cultured at the air–liquid interface in DMEM at 37 °C and 5% CO2. To confine reagents to the wound area, a resin barrier (OpalDam; Ultradent) was applied to the wounded area and polymerized using a hand-held UV light (Valo X) for 10 s. The wounds were then topically infected with 10 µL of S. aureus LUH14616 suspension of 1 × 10^7 CFU/mL (final dose: 1 × 10^5 CFU/graft) in PBS for 1 h, followed by topical application of 10 µL of peptide solution for 4 h. Chlorhexidine (0.5% (v/v) in 70% ethanol; Entick B.V.) and PBS were used as positive and negative controls, respectively. After treatment, tissue samples were transferred to polypropylene vials containing 1 mL PBS supplemented with 0.025% (v/v) SPS and a 7 mm stainless steel bead. Homogenization was performed using a MagnaLyser System (Roche) with three 30-s cycles at 7,000 rpm, with 30 s of cooling on ice between cycles. Homogenates were 10-fold serially diluted in PBS, and 100 µL aliquots were plated on BA plates. CFUs were enumerated after overnight incubation at 37 °C.

[4] = 20 µM and 200 µM topical, 1 h infection, 4 h treatment, versus PBS (Figure 4B)

N=C(N)NCCC[C@H](NC(=O)[C@H](Cc1c[nH]c2ccccc12)NC(=O)[C@H](CCC(N)=O)NC(=O)[C@H](Cc1c[nH]c2ccccc12)NC(=O)[C@H](CCCNC(=N)N)NC(=O)[C@@H](N)CCCNC(=N)N)C(=O)NC[C@H](NC(=O)[C@H](CCCNC(=N)N)NC(=O)[C@H](Cc1c[nH]c2ccccc12)NC(=O)[C@H](CCC(N)=O)NC(=O)[C@H](Cc1c[nH]c2ccccc12)NC(=O)[C@H](CCCNC(=N)N)NC(=O)[C@@H](N)CCCNC(=N)N)C(=O)NCCCCCC(=O)N[C@@H](CSSC[C@H](NC(=O)CCCCCNC(=O)[C@H](CNC(=O)[C@H](CCCNC(=N)N)NC(=O)[C@H](Cc1c[nH]c2ccccc12)NC(=O)[C@H](CCC(N)=O)NC(=O)[C@H](Cc1c[nH]c2ccccc12)NC(=O)[C@H](CCCNC(=N)N)NC(=O)[C@@H](N)CCCNC(=N)N)NC(=O)[C@H](CCCNC(=N)N)NC(=O)[C@H](Cc1c[nH]c2ccccc12)NC(=O)[C@H](CCC(N)=O)NC(=O)[C@H](Cc1c[nH]c2ccccc12)NC(=O)[C@H](CCCNC(=N)N)NC(=O)[C@@H](N)CCCNC(=N)N)C(N)=O)C(N)=O [LBT-1] (I: H-RRWQWR[Dap][Ahx]C-NH2 / II: H-RRWQWR[Dap][Ahx]C-NH2 / III: H-RRWQWR / IV: H-RRWQWR; amide I:7-III:C, II:7-IV:C; disulfide I:9-II:9; N-terminus and C-terminus assumed)
Time to complete bacterial eradication (S. aureus JAR060131): up to 120 min
Log reduction in CFU (S. aureus JAR060131): > 3 log
Time to complete killing (A. baumannii RUH875): ≤ 30 min
Log reduction in CFU (A. baumannii RUH875; within 1 min at 3.75 µM): > 3 log
Reduction of TNFα production induced by UV-inactivated S. aureus [1]: not observed
Macrophage reduction of intracellular S. aureus burden 24 h post-phagocytosis [2]: significantly enhanced
Reduction of bacterial load (CFU counts) [3, 4]: dose-dependent reduction
Reduction of bacterial load after different infection durations ([3]; 200 µM for 4 h, started 0.5, 1 or 2 h post-infection (Figure 4D)): significantly reduced bacterial load in all groups
Reduction of bacterial load (CFU counts) ([3]; 200 µM topical, 4 h treatment, versus PBS (Figure 4B), p < 0.05): significant decrease
Reduction of bacterial load (CFU counts) ([3]; 200 µM topical, 4 h treatment, versus untreated control (Figure 4C), p < 0.001): significantly reduced bacterial load
Effective bactericidal concentration ([3]; ex vivo wounded human skin, 4 h treatment): 200 µM

N=C(N)NCCC[C@H](NC(=O)[C@H](Cc1c[nH]c2ccccc12)NC(=O)[C@H](CCC(N)=O)NC(=O)[C@H](Cc1c[nH]c2ccccc12)NC(=O)[C@H](CCCNC(=N)N)NC(=O)[C@@H](N)CCCNC(=N)N)C(=O)NCCCC[C@H](NC(=O)[C@H](CCCNC(=N)N)NC(=O)[C@H](Cc1c[nH]c2ccccc12)NC(=O)[C@H](CCC(N)=O)NC(=O)[C@H](Cc1c[nH]c2ccccc12)NC(=O)[C@H](CCCNC(=N)N)NC(=O)[C@@H](N)CCCNC(=N)N)C(=O)NCCCCCC(=O)N[C@@H](CSSC[C@H](NC(=O)CCCCCNC(=O)[C@H](CCCCNC(=O)[C@H](CCCNC(=N)N)NC(=O)[C@H](Cc1c[nH]c2ccccc12)NC(=O)[C@H](CCC(N)=O)NC(=O)[C@H](Cc1c[nH]c2ccccc12)NC(=O)[C@H](CCCNC(=N)N)NC(=O)[C@@H](N)CCCNC(=N)N)NC(=O)[C@H](CCCNC(=N)N)NC(=O)[C@H](Cc1c[nH]c2ccccc12)NC(=O)[C@H](CCC(N)=O)NC(=O)[C@H](Cc1c[nH]c2ccccc12)NC(=O)[C@H](CCCNC(=N)N)NC(=O)[C@@H](N)CCCNC(=N)N)C(N)=O)C(N)=O [LBT] (I: H-RRWQWRK[Ahx]C-NH2 / II: H-RRWQWRK[Ahx]C-NH2 / III: H-RRWQWR / IV: H-RRWQWR; amide I:7-III:C, II:7-IV:C; disulfide I:9-II:9; N-terminus and C-terminus assumed)
Time to complete bacterial eradication (S. aureus JAR060131): up to 120 min
Log reduction in CFU (S. aureus JAR060131): > 3 log
Time to complete killing (A. baumannii RUH875): 120 min
Reduction of TNFα production induced by UV-inactivated S. aureus [1]: not observed
Macrophage reduction of intracellular S. aureus burden 24 h post-phagocytosis [2]: significantly enhanced
Reduction of bacterial load (CFU counts) [3, 4]: minimal and non-significant reductions
